From PubChem BioAssay (NCI) come the findings set out here.

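Dose response: 5 concentrations. Exposure: 48 h. Format: 96-well plates. Endpoint: linear interpolation; highest concentration if not reached. Abbreviation: GI50, concentration required for 50% inhibition of growth. TGI: concentration producing complete growth inhibition.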

What is called GI50 is the concentration at which growth is held to half of that of the control. The TGI is the concentration at which net growth stops. Higher therefore signals lower sensitivity of the cells.

Test systems include 786-0 renal; A549 NSCLC; HCC-2998 colon; SF-268 CNS; SK-MEL-2 melanoma; SK-MEL-5 melanoma; T-47D breast; U251 CNS; UACC-62 melanoma; K-562 leukemia.
What all share (assay): DTP human tumour cell line panel, 48 h

For `NCCCNc1nc2ccccc2c2c(=O)c3cc(F)ccc3sc12`, the GI50 was 1.54 µM in the experiment with 786-0 renal; 1.59 µM in the experiment with A549 NSCLC; 1.64 µM in the experiment with HCC-2998 colon; 1.45 µM with SF-268 CNS; 1.75 µM in the experiment with SK-MEL-2 melanoma; 1.73 µM with SK-MEL-5 melanoma. For the same compound, the GI50 with T-47D breast is 1.63 µM; in the experiment on U251 CNS it was 1.64 µM; in the experiment with UACC-62 melanoma, 1.62 µM. In addition, the TGI in the experiment with 786-0 renal was determined as 3.01 µM; with A549 NSCLC, 3.48 µM; in the experiment on HCC-2998 colon it was 3.14 µM; in the experiment on SF-268 CNS, 3.12 µM; in the experiment with SK-MEL-2 melanoma, 3.43 µM; with SK-MEL-5 melanoma, 3.13 µM. The TGI with T-47D breast was determined as 3.58 µM; with U251 CNS, 3.25 µM; in the experiment with UACC-62 melanoma it was 3.01 µM.

Regarding `COC(=O)c1c[nH]c2cc(OC(C)C)c(OC(C)C)cc2c1=O`, the GI50 with 786-0 renal, in the experiment with A549 NSCLC, in the experiment with HCC-2998 colon, in the experiment on K-562 leukemia, in the experiment on SF-268 CNS and in the experiment on SK-MEL-2 melanoma was greater than 100 µM throughout. The GI50 with SK-MEL-5 melanoma, in the experiment with T-47D breast, in the experiment on U251 CNS and in the experiment on UACC-62 melanoma was greater than 100 µM throughout. In addition, the TGI with 786-0 renal, in the experiment on A549 NSCLC, in the experiment on HCC-2998 colon, in the experiment with K-562 leukemia, in the experiment on SF-268 CNS and in the experiment on SK-MEL-2 melanoma was greater than 100 µM throughout. In addition, the TGI in the experiment with SK-MEL-5 melanoma, with T-47D breast, in the experiment with U251 CNS and in the experiment on UACC-62 melanoma was greater than 100 µM in each case.

As for `CCN1CCN(c2nc(C)cc(NCc3cc(Nc4ccnc5cc(Cl)ccc45)ccc3F)n2)CC1`, the GI50 is 1.54 µM in the experiment with 786-0 renal; 3.54 µM in the experiment with A549 NSCLC; 1.78 µM with HCC-2998 colon; 0.663 µM in the experiment with K-562 leukemia; 1.89 µM in the experiment on SF-268 CNS; 2.12 µM in the experiment with SK-MEL-2 melanoma. The GI50 in the experiment on SK-MEL-5 melanoma is 1.7 µM; in the experiment with T-47D breast it was 1.73 µM; in the experiment on U251 CNS, 1.95 µM. Also, the total growth inhibition concentration (TGI) with 786-0 renal came to 3.13 µM; in the experiment on A549 NSCLC, 13.9 µM; with HCC-2998 colon, 3.89 µM; in the experiment with K-562 leukemia it was 4.95 µM; with SF-268 CNS, 5.79 µM; in the experiment on SK-MEL-2 melanoma it was 4.1 µM. For the same compound, the TGI with SK-MEL-5 melanoma was determined as 3.12 µM; with T-47D breast, 5.07 µM; in the experiment on U251 CNS it was 5.44 µM.

With `COc1cccc2c1C(=O)c1c(O)c3c(c(O)c1C2=O)C[C@@](O)(/C(CO)=N/NC(=O)CCCCCN1C(=O)C=CC1=O)C[C@@H]3O[C@H]1C[C@H](N)[C@H](O)[C@H](C)O1`, the 50% growth inhibitory concentration (GI50) was 0.386 µM with 786-0 renal; 1.5 µM in the experiment on HCC-2998 colon; 0.825 µM in the experiment on K-562 leukemia; 0.648 µM in the experiment on SF-268 CNS; 1.68 µM in the experiment on SK-MEL-2 melanoma; 0.49 µM in the experiment with T-47D breast. The GI50 in the experiment on U251 CNS was 0.325 µM; in the experiment with UACC-62 melanoma it was 0.621 µM. Further, the TGI in the experiment on 786-0 renal was 9.21 µM; in the experiment with HCC-2998 colon it was greater than 58.1 µM; in the experiment on K-562 leukemia, greater than 52.5 µM; with SF-268 CNS it was 12.4 µM; in the experiment with SK-MEL-2 melanoma, 5.33 µM; in the experiment on T-47D breast, 8.41 µM. Further, the TGI in the experiment with U251 CNS is 15.8 µM; in the experiment on UACC-62 melanoma, 3 µM.

Consider `NS(=O)(=O)c1ccc(N=Nc2ccc[nH]c2=O)cc1`, for which the TGI with 786-0 renal, in the experiment on A549 NSCLC, in the experiment with K-562 leukemia, in the experiment on SF-268 CNS, in the experiment on SK-MEL-2 melanoma and with SK-MEL-5 melanoma was greater than 100 µM in each case. Also, the TGI with T-47D breast, with U251 CNS and in the experiment with UACC-62 melanoma was greater than 100 µM each time.

For `CC(=Nc1ccc(N(C)C)cc1)c1ccccc1`, the TGI is 36.2 µM with 786-0 renal; 81.9 µM in the experiment on A549 NSCLC; greater than 100 µM in the experiment on HCC-2998 colon; 74.7 µM with K-562 leukemia; 29.4 µM in the experiment with SK-MEL-2 melanoma; 29.7 µM in the experiment on SK-MEL-5 melanoma. The TGI with T-47D breast was 55.4 µM; in the experiment on U251 CNS, greater than 100 µM; with UACC-62 melanoma it was 33.6 µM.

Regarding `O=S(=O)(NC1=NCCN1C(=S)SN1CCn2c1nsc2=S)c1ccc(Oc2ccccc2)cc1`, the GI50 in the experiment on 786-0 renal was 63.8 µM; with A549 NSCLC it was greater than 100 µM; in the experiment on HCC-2998 colon it was 41.7 µM; with SF-268 CNS it was 57.3 µM; in the experiment with SK-MEL-2 melanoma, 29.3 µM; with SK-MEL-5 melanoma, 32.3 µM. For the same compound, the figures for the GI50 with T-47D breast, in the experiment with U251 CNS and in the experiment on UACC-62 melanoma were 81.3 µM, greater than 100 µM and 39.3 µM, respectively. In addition, the TGI in the experiment with 786-0 renal is greater than 100 µM; with A549 NSCLC it was greater than 100 µM; in the experiment on HCC-2998 colon it was greater than 100 µM; in the experiment on SF-268 CNS it was greater than 100 µM; with SK-MEL-2 melanoma, 75.5 µM; with SK-MEL-5 melanoma, greater than 100 µM. In addition, the TGI with T-47D breast, with U251 CNS and with UACC-62 melanoma was greater than 100 µM in each case.

`COc1ccc(Oc2nc3cc(N)cc(N)c3nc2-c2ccccc2)cc1`: the GI50 in the experiment on 786-0 renal was 24.4 µM; in the experiment on A549 NSCLC, 37.4 µM; in the experiment on K-562 leukemia it was 26.1 µM; with SF-268 CNS it was 20.8 µM; with SK-MEL-2 melanoma, 25.1 µM; with SK-MEL-5 melanoma it was 44.6 µM. For the same compound, the GI50 with T-47D breast was 15.3 µM; in the experiment with U251 CNS, 26.6 µM; with UACC-62 melanoma, 63.5 µM. In addition, the TGI is greater than 100 µM in the experiment with 786-0 renal; greater than 100 µM in the experiment with A549 NSCLC; greater than 100 µM in the experiment with K-562 leukemia; greater than 100 µM in the experiment with SF-268 CNS; 87.5 µM in the experiment with SK-MEL-2 melanoma; greater than 100 µM with SK-MEL-5 melanoma. Besides, the figures for the TGI with T-47D breast, in the experiment with U251 CNS and in the experiment on UACC-62 melanoma were 97.3 µM, greater than 100 µM and greater than 100 µM, respectively.

For `c1ccc(C2=NOC3C4CCC(C4)C23)cc1` (stereo unspecified), the TGI with 786-0 renal, in the experiment on A549 NSCLC, in the experiment on HCC-2998 colon, with K-562 leukemia, in the experiment on SF-268 CNS and in the experiment with SK-MEL-2 melanoma was greater than 100 µM each time. In addition, the TGI in the experiment with SK-MEL-5 melanoma, in the experiment on U251 CNS and in the experiment with UACC-62 melanoma was greater than 100 µM each time.

`O=C(Oc1ccccc1)N(c1ccccc1)c1ccccc1`: the GI50 with 786-0 renal was 26.2 µM; in the experiment with A549 NSCLC, 26.2 µM; in the experiment with K-562 leukemia, 25.8 µM; with SF-268 CNS, 33.1 µM; in the experiment with SK-MEL-2 melanoma, 30.6 µM; in the experiment with SK-MEL-5 melanoma, 15 µM. For the same compound, the GI50 is 24.9 µM in the experiment with T-47D breast, 31.1 µM with U251 CNS and 22.3 µM in the experiment with UACC-62 melanoma. Besides, the TGI in the experiment with 786-0 renal is 83.4 µM; in the experiment with A549 NSCLC, greater than 100 µM; in the experiment with K-562 leukemia, greater than 100 µM; in the experiment with SF-268 CNS it was greater than 100 µM; with SK-MEL-2 melanoma, greater than 100 µM; in the experiment with SK-MEL-5 melanoma it was 29.9 µM. Further, the TGI in the experiment with T-47D breast, in the experiment on U251 CNS and with UACC-62 melanoma was greater than 100 µM each time.

For the compound `COc1cc(C(=O)/C=C/c2cc(-c3ccc4c(c3)OCO4)n[nH]2)cc(OC)c1OC`, the GI50 in the experiment with 786-0 renal was 1.84 µM; in the experiment on A549 NSCLC it was 2.13 µM; with HCC-2998 colon it was 2.02 µM; in the experiment with K-562 leukemia, 2.17 µM; in the experiment on SF-268 CNS, 2.45 µM; in the experiment with SK-MEL-5 melanoma it was 3.32 µM. The GI50 in the experiment on T-47D breast is 1.51 µM; in the experiment with U251 CNS it was 1.21 µM; in the experiment on UACC-62 melanoma, 1.81 µM. The TGI was 3.46 µM with 786-0 renal; 6.23 µM in the experiment with A549 NSCLC; 4.07 µM in the experiment with HCC-2998 colon; greater than 100 µM with K-562 leukemia; 7.64 µM in the experiment on SF-268 CNS; 13.3 µM in the experiment with SK-MEL-5 melanoma. The values for the total growth inhibition concentration (TGI) with T-47D breast, in the experiment on U251 CNS and with UACC-62 melanoma were 4.63 µM, 2.49 µM and 3.89 µM, respectively.

On to `CN(C)c1ccc(/C=C(\C#N)c2cc3ccccc3[nH]2)cc1`, for which the GI50 in the experiment with 786-0 renal is 2.52 µM; in the experiment on A549 NSCLC it was 1.55 µM; with HCC-2998 colon it was 6.59 µM; with SF-268 CNS, 2.52 µM; with SK-MEL-2 melanoma, 0.454 µM; with SK-MEL-5 melanoma it was 1.36 µM. The GI50 in the experiment with T-47D breast was 0.585 µM; with U251 CNS it was 0.913 µM; in the experiment with UACC-62 melanoma it was 0.679 µM. Moreover, the TGI was greater than 100 µM with 786-0 renal; greater than 100 µM with A549 NSCLC; greater than 100 µM in the experiment with HCC-2998 colon; greater than 100 µM in the experiment with SF-268 CNS; greater than 100 µM with SK-MEL-2 melanoma; 32.8 µM in the experiment on SK-MEL-5 melanoma. Moreover, the TGI in the experiment with T-47D breast is greater than 100 µM; in the experiment with U251 CNS it was 18.6 µM; in the experiment with UACC-62 melanoma it was greater than 100 µM.

Turning to `CCOC(=O)c1cc(=O)n(C)c(=O)n1C`, the TGI in the experiment on 786-0 renal, in the experiment on A549 NSCLC, with HCC-2998 colon, with K-562 leukemia, with SF-268 CNS and with SK-MEL-2 melanoma was greater than 100 µM in each case. The TGI in the experiment on SK-MEL-5 melanoma, with U251 CNS and in the experiment with UACC-62 melanoma was greater than 100 µM throughout.

Regarding `O=C1C=C(NCCO)c2nccc3c2c1nc1ccccc13`, the GI50 in the experiment with 786-0 renal is 31.5 µM; in the experiment with A549 NSCLC it was 16.4 µM; in the experiment on K-562 leukemia, 31.5 µM; with SF-268 CNS it was 26.4 µM; in the experiment on SK-MEL-2 melanoma, 27.7 µM; in the experiment on SK-MEL-5 melanoma it was 16.3 µM. The figures for the GI50 in the experiment on T-47D breast, in the experiment with U251 CNS and with UACC-62 melanoma were 46.2 µM, 23.4 µM and 13.4 µM, respectively. For the same compound, the TGI in the experiment on 786-0 renal is greater than 100 µM; in the experiment with A549 NSCLC, greater than 100 µM; in the experiment on K-562 leukemia, greater than 100 µM; in the experiment on SF-268 CNS it was greater than 100 µM; with SK-MEL-2 melanoma, 88.2 µM; with SK-MEL-5 melanoma it was 35 µM. In addition, the TGI in the experiment on T-47D breast is greater than 100 µM; with U251 CNS, greater than 100 µM; in the experiment on UACC-62 melanoma it was 31 µM.
